The target of one data set is T1, aromatase (Homo sapiens, UniProt P11511).
T1 construct: gene CYP19A1; human placental aromatase cDNA (nucleotides 16-1539) stably expressed in MCF-7 cells (clone Arom. 1)
T1 sequence (P11511 1-503): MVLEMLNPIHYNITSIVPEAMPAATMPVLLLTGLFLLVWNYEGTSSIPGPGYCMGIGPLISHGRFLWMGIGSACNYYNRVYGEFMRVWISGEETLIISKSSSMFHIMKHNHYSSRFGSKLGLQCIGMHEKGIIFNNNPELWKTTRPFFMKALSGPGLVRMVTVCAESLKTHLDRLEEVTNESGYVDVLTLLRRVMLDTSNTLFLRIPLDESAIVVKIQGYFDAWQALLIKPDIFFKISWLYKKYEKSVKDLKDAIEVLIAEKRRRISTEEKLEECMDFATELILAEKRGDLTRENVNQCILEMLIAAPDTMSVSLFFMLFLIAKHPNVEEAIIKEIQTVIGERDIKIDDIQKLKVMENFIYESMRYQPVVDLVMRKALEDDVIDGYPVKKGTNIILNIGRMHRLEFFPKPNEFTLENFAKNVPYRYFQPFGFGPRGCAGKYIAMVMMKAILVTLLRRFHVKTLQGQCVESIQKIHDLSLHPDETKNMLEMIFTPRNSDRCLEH
The data set can be described thus: cell-based.

Substrate in data set [1]: C[C@]12CCC(=O)C=C1CC[C@@H]1[C@@H]2CC[C@]2(C)C(=O)CC[C@@H]12
The data set can be described thus: cells, lysate or membranes.

The source of these data is paper PMC1968759, “Biological effects of stable overexpression of aromatase in human hormone-dependent breast cancer cells” (British Journal of Cancer, 1994).

A word on the IC50: it is the concentration that gives 50% inhibition. A low value points to greater potency. Turning to `C[C@]12CCC(=O)C(O)=C1CC[C@@H]1[C@@H]2CC[C@]2(C)C(=O)CC[C@@H]12` [4-hydroxyandrostenedione], on aromatase, inhibition was half-maximal at 70 nM (IC50). That is a double-digit nanomolar value.

B1: aromatase (Homo sapiens) (protein)
chain: MVLEMLNPIHYNITSIVPEAMPAATMPVLLLTGLFLLVWNYEGTSSIPGPGYCMGIGPLISHGRFLWMGIGSACNYYNRVYGEFMRVWISGEETLIISKSSSMFHIMKHNHYSSRFGSKLGLQCIGMHEKGIIFNNNPELWKTTRPFFMKALSGPGLVRMVTVCAESLKTHLDRLEEVTNESGYVDVLTLLRRVMLDTSNTLFLRIPLDESAIVVKIQGYFDAWQALLIKPDIFFKISWLYKKYEKSVKDLKDAIEVLIAEKRRRISTEEKLEECMDFATELILAEKRGDLTRENVNQCILEMLIAAPDTMSVSLFFMLFLIAKHPNVEEAIIKEIQTVIGERDIKIDDIQKLKVMENFIYESMRYQPVVDLVMRKALEDDVIDGYPVKKGTNIILNIGRMHRLEFFPKPNEFTLENFAKNVPYRYFQPFGFGPRGCAGKYIAMVMMKAILVTLLRRFHVKTLQGQCVESIQKIHDLSLHPDETKNMLEMIFTPRNSDRCLEH
In general, Km refers to the concentration of substrate that gives half-maximal velocity. B1: in data set [1], the Km amounted to 0.07 µM.
